In paper PMC8191784 (2021):

Legend:
[1] = tested on: wild-type add aptamer, vector P2-P3 (L2-L3) (RNA, riboswitch, 5-aminoallyl-U at the two dye sites (underlined positions not given)) GCGCGAGCGUUGUAUAAUCCUAAUGAUAUGGUUUGGGAGUUUCUACCAAGAGCCUUAAACUCUUGAUUACAACGCUCGCGC; assay: smFRET
[2] = tested on: L2 mutant (U28A, A29U, G31C, G32C), vector P2-P3 (L2-L3) (RNA, riboswitch, 5-aminoallyl-U at the two dye sites (underlined positions not given)) GCGCGAGCGUUGUAUAAUCCUAAUGAAUUCCUUUGGGAGUUUCUACCAAGAGCCUUAAACUCUUGAUUACAACGCUCGCGC; assay: smFRET; settings: 10 mM Tris-HCl pH 8.0
[3] = tested on: L3 mutant, vector P2-P3 (L2-L3) (RNA, riboswitch, 5-aminoallyl-U at the two dye sites (underlined positions not given)) GCGCGAGCGUUGUAUAAUCCUAAUGAUAUGGUUUGGGAGUUUCUACCAAGAGGGUAUAACUCUUGAUUACAACGCUCGCGC; assay: smFRET; settings: Na+, Mg2+ (see Figure S3); 10 mM Tris-HCl pH 8.0
[4] = tested on: L2 mutant, vector P1-P3 (RNA, riboswitch, 5-aminoallyl-U at the two dye sites (underlined positions not given)) GCGCGAGCGUUGUAUAAUCCUAAUGAAUUCCUUUGGGAGUUUCUACCAAGAGCCUUAAACUCUUGAUUACAACGCUCGCGC; assay: smFRET; settings: 10 mM NaCl, 10 mM MgCl2; 10 mM Tris-HCl pH 8.0; 1 mM DAP
[5] = tested on: wild-type add aptamer, vector P1-P2 (RNA, riboswitch, 5-aminoallyl-U at the two dye sites (underlined positions not given)) GCGCGAGCGUUGUAUAAUCCUAAUGAUAUGGUUUGGGAGUUUCUACCAAGAGCCUUAAACUCUUGAUUACAAUGCUCGCGC; assay: smFRET; settings: 10 mM NaCl, 10 mM MgCl2; 10 mM Tris-HCl pH 8.0; 1 mM DAP
[6] = tested on: L2 mutant, vector P1-P2 (RNA, riboswitch, 5-aminoallyl-U at the two dye sites (underlined positions not given)) GCGCGAGCGUUGUAUAAUCCUAAUGAAUUCCUUUGGGAGUUUCUACCAAGAGCCUUAAACUCUUGAUUACAAUGCUCGCGC; assay: smFRET; settings: 10 mM NaCl, 10 mM MgCl2; 10 mM Tris-HCl pH 8.0; 1 mM DAP
[7] = tested on: wild-type add aptamer, vector J2/3-P1 (core-P1) (RNA, riboswitch, 5-aminoallyl-U at residue 42 (aptamer numbering) and at a P1 site (position not visible)) GCGCGAGCGUUGUAUAAUCCUAAUGAUAUGGUUUGGGAGUUUCUACCAAGAGCCUUAAACUCUUGAUUACAACGCUCGCGC; assay: smFRET; settings: 10 mM NaCl, 10 mM MgCl2; 10 mM Tris-HCl pH 8.0; 1 mM DAP
[8] = tested on: L2 mutant, vector J2/3-P1 (core-P1) (RNA, riboswitch, 5-aminoallyl-U at residue 42 (aptamer numbering) and at a P1 site (position not visible)) GCGCGAGCGUUGUAUAAUCCUAAUGAAUUCCUUUGGGAGUUUCUACCAAGAGCCUUAAACUCUUGAUUACAACGCUCGCGC; assay: smFRET; settings: 10 mM NaCl, 10 mM MgCl2; 10 mM Tris-HCl pH 8.0; 1 mM DAP
[9] = tested on: wild-type add aptamer, SHAPE transcript (RNA, riboswitch) GCGCUUCAUAUAAUCCUAAUGAUAUGGUUUGGGAGUUUCUACCAAGAGCCUUAAACUCUUGAUUAUGAAGUAAUUUAUCGUCACGGUGCAUCUACCAUC; assay: SHAPE (NMIA) probing; settings: NaCl, 0-10 mM MgCl2; K-HEPES pH 8.0, 37 °C; 2 mM DAP
[10] = tested on: L2 mutant aptamer, SHAPE transcript (RNA, riboswitch) GCGCUUCAUAUAAUCCUAAUGAAUUCCUUUGGGAGUUUCUACCAAGAGCCUUAAACUCUUGAUUAUGAAGUAAUUUAUCGUCACGGUGCAUCUACCAUC; assay: SHAPE (NMIA) probing; settings: NaCl, 0-10 mM MgCl2; K-HEPES pH 8.0, 37 °C; 2 mM DAP

binding ([1]; 10 mM NaCl, 10 mM MgCl2, 10 mM Tris-HCl pH 8.0, 1 mM DAP, FRET same as Mg2+ alone)	binding ([2]; 10 mM Na+, no Mg2+, aptamer stays in U state without Mg2+)	binding ([2]; 10 mM NaCl, 10 mM MgCl2, 1 mM DAP)	binding [3]	binding [4]	binding [5]	binding [6]	binding [7]	binding [8]	binding [9]	binding [10]	binding ([1]; 200 mM NaCl, 3 M urea, adenine titration)	binding ([2]; Na+, Mg2+ (see Figure S2), adenine concentration varied)	Compound
yes	no	yes	yes	yes	yes	yes	yes	yes	yes	yes			Nc1nc(N)c2[nH]cnc2n1
											yes	yes	Nc1ncnc2[nH]cnc12
